Each structure is given as a SMILES string.

Series [1] has as its system apoB-100. As to the kind of experiment: Inhibition of apoB-100 secretion by primary human hepatocytes (35S-methionine labelling, SDS PAGE, Phosphorimager). The following applies: 8 hours incubation, tested from 1 μM to 1.6 nM, secretion of radiolabeled apoB-100, untreated cells as controls. The series is classed as cell-based. On the procedure:
The ability of the compounds of the invention to inhibit the production of apoB-100 by human hepatocytes in vitro is determined using primary human hepatocytes as a model system. The specificity of the compounds of the invention is established by comparing the effects on apoB-100, apoprotein A-1, and fibrinogen production. A specificity of at least 100 is preferred.
Primary human hepatocytes were seeded at 50 000 cells/well in 96 well plates. After an overnight adhesion phase, cells were incubated with compounds for 8 hours in RPMI medium containing 1% FCS, 4 μg/ml insulin, 100 nM dexamethasone and 50 μCi/ml ^35S-methionine. […] Production of radiolabeled apoB-100 and apoA-1 (used as a selectivity control) was quantified by analysis of supermatants using SDS AGE and exposure of gels onto Phosphorimager screens. Inhibition of apo-100 and apoA-1 secretion by compounds was calculated taking untreated cells as controls, and IC50 of each compound was determined on both apoproteins.

Broadly, the IC50 is the concentration that gives 50% inhibition. The low end stands for greater potency in that assay, the high end for weaker potency in that assay. As to `O=C(Nc1ccc(N2CCN(Cc3ccc[nH]3)CC2)cc1)c1ccccc1-c1ccc(C(F)(F)F)cc1` [Example 62, 4′-Trifluormethyl-biphenyl-2-carboxylic Acid [4-(4-(1H-pyrrol-2-ylmethyl)-piperazin-1-yl)-phenyl)-amide], half-maximal inhibition in series [1] (IC50) was put at 10 nM.
Usually melting point stands for the temperature of the solid-liquid transition. Regarding `COc1cccc(C(=O)Nc2ccc(N3CCN(Cc4cccc(C#N)c4)CC3)cc2)c1-c1ccc(C(C)C)cc1` [Example 3, 4′-Isopropyl-6-methoxy-biphenyl-2-carboxylic Acid [4-[4-(3-cyano-benzyl)-piperazin-1-yl]-phenyl]-amide], the melting point was found to be 179 °C. This molecule also showed an IC50 in series [1] of 13 nM. For the same molecule, the IC50 in series [1] (Homo sapiens, Hepatocyte, 8 h) is 18 nM.
On to `Cc1ccc(C(=O)Nc2ccc(N3CCN(Cc4ccc[nH]4)CC3)cc2)c(-c2ccc(C(C)C)cc2)c1` [Example 63, 4′-Isopropyl-5-methyl-biphenyl-2-carboxylic Acid [4-(4-(1H-pyrrol-2-ylmethyl)-25 piperazin-1-yl)-phenyl]-amide], for which, in series [1], the IC50 turned out to be 20 nM.
Consider `Cc1ccc(C(=O)Nc2ccc(N3CCN(Cc4ccc[nH]4)CC3)cc2)c(-c2ccc(C(F)(F)F)cc2)c1` [Example 64, 5-Methyl-4′-trifluoromethyl-biphenyl-2-carboxylic Acid [4-(4-(1H-pyrrol-2-ylmethyl)-piperazin-1-yl)-phenyl]-amide], for which the melting point lay within 196 to 198 °C. For the same molecule, the IC50 in series [1] (Homo sapiens, Hepatocyte, 8 h) was 19 nM.
`Cc1cccc(C(=O)Nc2ccc(N3CCN(Cc4cccc(C#N)c4)CC3)cc2)c1-c1ccc(C(F)(F)F)cc1` [Example 5, 6-Methyl-4′-trifluoromethyl-biphenyl-2-carboxylic Acid [4-[4-(3-cyano-benzyl)-piperazin-1-yl]-phenyl]-amide] came in with a melting point of 192 °C. The IC50 in series [1] (Homo sapiens, Hepatocyte, 8 h) was determined as 15 nM.
As to `Cc1ccc(C(=O)Nc2ccc(N3CCN(Cc4cccc(-c5nc(C)no5)c4)CC3)cc2)c(-c2ccc(C(C)C)cc2)c1` [Example 6], the IC50 in series [1] amounted to 18 nM.
Take `Cc1ccc(C(=O)Nc2ccc(N3CCN(Cc4cccc(C#N)c4)CC3)cc2)c(-c2ccc(C(C)C)cc2)c1` [Example 2, 4′-Isopropyl-5-methyl-biphenyl-2-carboxylic Acid [4-[4-(3-cyano-benzyl)-piperazin-1-yl]-phenyl]-amide]: the melting point lay in the range of 167 to 169 °C. In series [1] (Homo sapiens, Hepatocyte, 8 h), this molecule had a half-maximal inhibitory concentration (IC50) of 18 nM.
On to `Cc1cccc(C(=O)Nc2ccc(N3CCN(Cc4cccc(C#N)c4)CC3)cc2)c1-c1ccc(C(C)C)cc1` [Example 4], for which 12 nM corresponded to half-maximal inhibition in series [1] (IC50).

Values taken from US6552022B1, “Benzamide derivatives and their use as ApoB-100 secretion inhibitors” (SmithKline Beecham Corporation, priority 1998, dated 2003).
